In patent publication US20040067167A1, “Methods and apparatus for optophoretic diagnosis of cells and particles” (Genoptix, Inc., priority 2002, published 2004):

Columns and labels:
[1] = test system: HL60 cells; assay: Time-of-flight (TOF) optophoretic testing of HL60 cells treated with DMSO; type: cell-based; settings: 1% DMSO, after 40 hours of treatment, compared to non-treated HL60 cells (FIGS. 44 and 45)
From the text: The system includes multiple, preferably three, detecting positions, 31, 32 and 33. The detecting positions 31, 32, 33, may be associated with detection of times, e.g., t1, t2, t3. The times may be absolute, relative or elapsed. The two outermost detecting positions, i.e., 31 and 33 in this example, are separated by a distance L. A representative length L when detecting biological particles would be substantially 200 microns or less. The difference between the first two detecting positions t1, t2, define a time interval T1. T1 may also be associated with a first detection zone corresponding to the motion of the particle 36 through the zone T1. The second and third detecting positions t2, t3, define a second detection zone T2. The second detection zone also corresponds to the time difference between t2, t3. In one preferred embodiment, the distance between t2 t3 is equal to the distance between t1 t2. In operation, the cell or particle 36 flows from the inlet 22 through the channel 20 through the outlet 24. For biological detection purposes, representative particle speeds are from substantially 50 to substantially 200 microns per second. As the cell or particle 36 flows through the first detection zone T1, the time-of-flight through that zone is measured, that is the time it takes for the cell or particle 36 to move from position t1 to t2. An optical gradient 38 is disposed within zone T2. […]

[2] = test system: T cells; assay: Time-of-flight (TOF) optophoretic testing of activated and unactivated T cells; type: cell-based; settings: T cells activated with 0.5 μml PMA and 50 ng/ml ionomycin together, overnight, compared to unstimulated T cells (FIG. 46)
From the text: The system includes multiple, preferably three, detecting positions, 31, 32 and 33. The detecting positions 31, 32, 33, may be associated with detection of times, e.g., t1, t2, t3. The times may be absolute, relative or elapsed. The two outermost detecting positions, i.e., 31 and 33 in this example, are separated by a distance L. A representative length L when detecting biological particles would be substantially 200 microns or less. The difference between the first two detecting positions t1, t2, define a time interval T1. T1 may also be associated with a first detection zone corresponding to the motion of the particle 36 through the zone T1. The second and third detecting positions t2, t3, define a second detection zone T2. The second detection zone also corresponds to the time difference between t2, t3. In one preferred embodiment, the distance between t2 t3 is equal to the distance between t1 t2.
In operation, the cell or particle 36 flows from the inlet 22 through the channel 20 through the outlet 24. For biological detection purposes, representative particle speeds are from substantially 50 to substantially 200 microns per second. As the cell or particle 36 flows through the first detection zone T1, the time-of-flight through that zone is measured, that is the time it takes for the cell or particle 36 to move from position t1 to t2. An optical gradient 38 is disposed within zone T2. […]

For `C[S+](C)[O-]` [DMSO, dimethyl sulfoxide], the “TOF ratio t2/t1” value [1] was “lower TOF ratio”.
`CCCCCCCCCCCCCC(=O)O[C@@H]1[C@@H](C)[C@@]2(O)[C@@H](C=C(CO)C[C@]3(O)C(=O)C(C)=C[C@@H]23)[C@@H]2C(C)(C)[C@]12OC(C)=O` [PMA, Phorbol mystirate acetate] was tested, and the “TOF ratio t2/t1” value [2] was “lower TOF ratio”.
In the case of `C[C@H](CCC(=O)O)C[C@H](C)C[C@H](C)C(=O)/C=C(\O)[C@H](C)C[C@H](C)C/C=C/[C@@H](C)[C@@H](O)[C@@H](C)[C@@H](O)C[C@@H]1CC[C@@](C)([C@H]2CC[C@@](C)([C@@H](C)O)O2)O1` [ionomycin], the “TOF ratio t2/t1” value [2] was “lower TOF ratio”.
